Reference: patent US11331299B2, “Medicinal use of serrulatane diterpenes” (The University of Sydney, priority 2016, dated 2022)

Columns and labels:
Assay in all cases: biochemical
Assay type in all cases: binding
[1] = target: receptors (Bioprint panel) (Homo sapiens, UniProt Q13639); conditions: read-out: % Inhibition of Control Specific Binding
[2] = target: receptors (Bioprint panel) (Homo sapiens, UniProt P41595); conditions: read-out: % Inhibition of Control Specific Binding
[3] = target: receptors (Bioprint panel) (Homo sapiens, UniProt P41146); conditions: OPIOD & OPIOID-LIKE NOP (ORL1) (h) (agonist radioligand); 10 μM; read-out: % Inhibition of Control Specific Binding
[4] = target: receptors (Bioprint panel) (Homo sapiens, UniProt P07550); conditions: […] beta 2 (h) (agonist radioligand); 10 μM; read-out: % Inhibition of Control Specific Binding
[5] = target: receptors (Bioprint panel) (Homo sapiens, UniProt P50406); conditions: read-out: % Inhibition of Control Specific Binding
[6] = target: receptors (Bioprint panel) (Homo sapiens, UniProt P37288); conditions: VASOPRESSIN V1a (h) (agonist radioligand); 10 μM; read-out: % Inhibition of Control Specific Binding
[7] = target: receptors (Bioprint panel) (Homo sapiens, UniProt P47871); conditions: glucagon (h) (agonist radioligand); 10 μM; read-out: % Inhibition of Control Specific Binding
[8] = target: receptors (Bioprint panel) (Homo sapiens, UniProt P43119); conditions: […] (PGI2) (h) (agonist radioligand); 10 μM; read-out: % Inhibition of Control Specific Binding
[9] = target: receptors (Bioprint panel) (Homo sapiens, UniProt P14416); conditions: DOPAMINE D2S (h) (agonist radioligand); 10 μM; read-out: % Inhibition of Control Specific Binding
[10] = target: receptors (Bioprint panel) (Homo sapiens, UniProt P30872); conditions: SOMASTATIN sst1 (h) (agonist radioligand); 10 μM; read-out: % Inhibition of Control Specific Binding
[11] = system: receptors (Bioprint panel); conditions: 10 μM
[12] = target: T1, receptors (Bioprint panel) (Homo sapiens, UniProt P30556); conditions: A[…] AT1 (h) (antagonist radioligand); 10 μM; read-out: % Inhibition of Control Specific Binding
T1 construct: other: ANGIOTENSIN II AT1 (h) (antagonist radioligand); 10 μM

[13] = target: receptors (Bioprint panel) (Homo sapiens, UniProt P41968); conditions: MELANOCORTIN MC3 (h) (agonist radioligand); 10 μM; read-out: % Inhibition of Control Specific Binding
[14] = target: receptors (Bioprint panel) (Homo sapiens, UniProt P04150); conditions: read-out: % Inhibition of Control Specific Binding
[15] = target: receptors (Bioprint panel) (Homo sapiens, UniProt P28335); conditions: read-out: % Inhibition of Control Specific Binding
[16] = target: receptors (Bioprint panel) (Rattus norvegicus, UniProt P34975); conditions: OPIOD & OPIOID-LIKE kappa (KOP) (agonist radioligand); 10 μM; read-out: % Inhibition of Control Specific Binding
[17] = target: receptors (Bioprint panel) (Homo sapiens, UniProt Q9GZV3); conditions: choline transporter (CHT1) (h) (antagonist radioligand); 10 μM; read-out: % Inhibition of Control Specific Binding
[18] = target: receptors (Bioprint panel) (Homo sapiens, UniProt P21554); conditions: CANNABINOID CB1 (h) (agonist radioligand); 10 μM; read-out: % Inhibition of Control Specific Binding
[19] = target: receptors (Bioprint panel) (Homo sapiens, UniProt P30542); conditions: ADENOSINE A1 (h) (agonist radioligand); 10 μM; read-out: % Inhibition of Control Specific Binding
[20] = target: receptors (Bioprint panel) (Rattus norvegicus, UniProt P28565); conditions: read-out: % Inhibition of Control Specific Binding
[21] = target: receptors (Bioprint panel) (Homo sapiens, UniProt O43193); conditions: motilin(h) (agonist radioligand); 10 μM; read-out: % Inhibition of Control Specific Binding
[22] = target: receptors (Bioprint panel) (Homo sapiens, UniProt Q9UBS5); conditions: GABA GABAB(1b) (h) (antagonist radioligand); 10 μM; read-out: % Inhibition of Control Specific Binding
[23] = target: receptors (Bioprint panel) (Homo sapiens, UniProt P41143); conditions: OPIOD & OPIOID-LIKE delta (DOP) (h) (agonist radioligand); 10 μM; read-out: % Inhibition of Control Specific Binding
[24] = target: receptors (Bioprint panel) (Homo sapiens, UniProt P10275); conditions: 10 μM
[25] = target: receptors (Bioprint panel) (Homo sapiens, UniProt P20309); conditions: […] M3 (h) (antagonist radioligand); 10 μM; read-out: % Inhibition of Control Specific Binding
[26] = target: receptors (Bioprint panel) (Homo sapiens, UniProt P08173); conditions: […] M4 (h) (antagonist radioligand); 10 μM; read-out: % Inhibition of Control Specific Binding
receptors (Bioprint panel) (Homo sapiens, UniProt P08173), sequence (P08173 whole entry): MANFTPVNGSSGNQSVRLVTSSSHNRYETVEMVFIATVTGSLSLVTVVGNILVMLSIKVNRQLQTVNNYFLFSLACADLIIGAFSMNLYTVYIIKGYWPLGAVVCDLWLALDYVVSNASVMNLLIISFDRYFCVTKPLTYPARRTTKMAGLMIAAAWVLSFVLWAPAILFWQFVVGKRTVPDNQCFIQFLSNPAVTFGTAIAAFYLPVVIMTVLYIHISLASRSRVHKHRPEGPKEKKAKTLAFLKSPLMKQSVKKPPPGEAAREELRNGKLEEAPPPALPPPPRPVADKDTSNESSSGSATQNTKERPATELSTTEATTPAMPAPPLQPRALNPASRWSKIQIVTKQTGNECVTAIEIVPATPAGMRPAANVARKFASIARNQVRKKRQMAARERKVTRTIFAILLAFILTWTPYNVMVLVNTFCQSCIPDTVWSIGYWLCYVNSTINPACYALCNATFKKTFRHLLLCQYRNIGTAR

receptors (Bioprint panel) (Homo sapiens, UniProt P41146), sequence (P41146 whole entry): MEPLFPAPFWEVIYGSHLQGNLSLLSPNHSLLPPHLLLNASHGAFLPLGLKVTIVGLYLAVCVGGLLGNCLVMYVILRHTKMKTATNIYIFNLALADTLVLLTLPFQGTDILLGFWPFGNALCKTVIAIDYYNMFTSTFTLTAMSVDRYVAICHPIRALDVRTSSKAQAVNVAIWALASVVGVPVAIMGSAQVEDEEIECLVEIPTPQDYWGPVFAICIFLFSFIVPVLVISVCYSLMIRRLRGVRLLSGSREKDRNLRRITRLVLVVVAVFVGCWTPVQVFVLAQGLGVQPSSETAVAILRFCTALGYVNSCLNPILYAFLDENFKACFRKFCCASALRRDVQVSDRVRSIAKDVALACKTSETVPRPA
receptors (Bioprint panel) (Homo sapiens, UniProt P41143), sequence (P41143 whole entry): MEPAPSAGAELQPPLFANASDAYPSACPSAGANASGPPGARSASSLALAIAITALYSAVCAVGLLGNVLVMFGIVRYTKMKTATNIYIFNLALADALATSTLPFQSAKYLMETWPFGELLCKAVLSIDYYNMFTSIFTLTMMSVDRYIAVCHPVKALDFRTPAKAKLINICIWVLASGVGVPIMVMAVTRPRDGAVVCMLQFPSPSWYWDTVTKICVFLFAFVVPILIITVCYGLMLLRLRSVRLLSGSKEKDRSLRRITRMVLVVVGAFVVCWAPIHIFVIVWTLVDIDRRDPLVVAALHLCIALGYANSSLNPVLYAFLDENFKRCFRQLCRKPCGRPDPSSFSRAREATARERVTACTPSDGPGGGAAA
receptors (Bioprint panel) (Homo sapiens, UniProt P04150), sequence (P04150 whole entry): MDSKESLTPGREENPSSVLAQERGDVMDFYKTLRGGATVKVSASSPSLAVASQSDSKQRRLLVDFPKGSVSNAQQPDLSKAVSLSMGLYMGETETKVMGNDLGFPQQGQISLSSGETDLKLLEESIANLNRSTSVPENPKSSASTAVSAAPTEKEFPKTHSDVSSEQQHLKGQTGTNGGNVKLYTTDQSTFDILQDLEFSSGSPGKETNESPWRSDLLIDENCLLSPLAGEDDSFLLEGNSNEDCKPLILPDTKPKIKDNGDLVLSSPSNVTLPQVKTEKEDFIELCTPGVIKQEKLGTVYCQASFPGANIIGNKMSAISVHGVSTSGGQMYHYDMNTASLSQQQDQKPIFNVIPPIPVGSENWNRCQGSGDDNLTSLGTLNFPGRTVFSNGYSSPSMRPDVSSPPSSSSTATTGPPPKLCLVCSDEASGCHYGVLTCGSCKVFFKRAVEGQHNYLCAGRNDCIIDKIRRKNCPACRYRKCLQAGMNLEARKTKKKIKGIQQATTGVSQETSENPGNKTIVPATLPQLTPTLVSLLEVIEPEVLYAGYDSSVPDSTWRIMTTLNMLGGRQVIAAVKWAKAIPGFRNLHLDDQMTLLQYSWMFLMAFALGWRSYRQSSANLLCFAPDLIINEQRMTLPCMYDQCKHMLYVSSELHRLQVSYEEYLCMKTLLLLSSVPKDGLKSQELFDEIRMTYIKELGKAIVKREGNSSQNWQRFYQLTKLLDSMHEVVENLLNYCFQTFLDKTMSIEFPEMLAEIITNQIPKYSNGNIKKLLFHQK
receptors (Bioprint panel) (Homo sapiens, UniProt O43193), sequence (O43193 whole entry): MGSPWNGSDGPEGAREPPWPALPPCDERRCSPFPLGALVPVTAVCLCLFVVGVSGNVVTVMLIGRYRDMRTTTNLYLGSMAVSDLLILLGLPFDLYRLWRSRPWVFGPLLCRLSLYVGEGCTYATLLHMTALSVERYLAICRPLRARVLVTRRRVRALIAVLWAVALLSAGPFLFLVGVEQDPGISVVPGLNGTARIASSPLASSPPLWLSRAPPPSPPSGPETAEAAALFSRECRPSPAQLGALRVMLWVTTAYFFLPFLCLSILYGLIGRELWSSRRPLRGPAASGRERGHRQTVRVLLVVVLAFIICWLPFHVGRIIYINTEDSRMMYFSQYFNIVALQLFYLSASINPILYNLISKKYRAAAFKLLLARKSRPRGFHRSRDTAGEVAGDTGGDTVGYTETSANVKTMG
receptors (Bioprint panel) (Homo sapiens, UniProt P28335), sequence (P28335 33-458): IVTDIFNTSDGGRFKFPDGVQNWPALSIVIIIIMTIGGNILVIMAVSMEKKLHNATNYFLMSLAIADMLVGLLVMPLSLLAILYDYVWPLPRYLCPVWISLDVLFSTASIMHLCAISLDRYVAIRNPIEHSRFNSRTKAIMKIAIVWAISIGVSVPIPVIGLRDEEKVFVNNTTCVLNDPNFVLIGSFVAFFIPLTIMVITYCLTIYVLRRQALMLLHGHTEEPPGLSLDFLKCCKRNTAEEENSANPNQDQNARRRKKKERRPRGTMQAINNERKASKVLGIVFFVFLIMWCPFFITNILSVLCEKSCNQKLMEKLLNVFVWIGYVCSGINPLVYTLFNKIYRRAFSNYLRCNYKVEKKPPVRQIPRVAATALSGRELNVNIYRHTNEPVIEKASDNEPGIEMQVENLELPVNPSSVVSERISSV
receptors (Bioprint panel) (Homo sapiens, UniProt Q9UBS5), sequence (Q9UBS5 other isoform, or with tags, fused parts or gaps): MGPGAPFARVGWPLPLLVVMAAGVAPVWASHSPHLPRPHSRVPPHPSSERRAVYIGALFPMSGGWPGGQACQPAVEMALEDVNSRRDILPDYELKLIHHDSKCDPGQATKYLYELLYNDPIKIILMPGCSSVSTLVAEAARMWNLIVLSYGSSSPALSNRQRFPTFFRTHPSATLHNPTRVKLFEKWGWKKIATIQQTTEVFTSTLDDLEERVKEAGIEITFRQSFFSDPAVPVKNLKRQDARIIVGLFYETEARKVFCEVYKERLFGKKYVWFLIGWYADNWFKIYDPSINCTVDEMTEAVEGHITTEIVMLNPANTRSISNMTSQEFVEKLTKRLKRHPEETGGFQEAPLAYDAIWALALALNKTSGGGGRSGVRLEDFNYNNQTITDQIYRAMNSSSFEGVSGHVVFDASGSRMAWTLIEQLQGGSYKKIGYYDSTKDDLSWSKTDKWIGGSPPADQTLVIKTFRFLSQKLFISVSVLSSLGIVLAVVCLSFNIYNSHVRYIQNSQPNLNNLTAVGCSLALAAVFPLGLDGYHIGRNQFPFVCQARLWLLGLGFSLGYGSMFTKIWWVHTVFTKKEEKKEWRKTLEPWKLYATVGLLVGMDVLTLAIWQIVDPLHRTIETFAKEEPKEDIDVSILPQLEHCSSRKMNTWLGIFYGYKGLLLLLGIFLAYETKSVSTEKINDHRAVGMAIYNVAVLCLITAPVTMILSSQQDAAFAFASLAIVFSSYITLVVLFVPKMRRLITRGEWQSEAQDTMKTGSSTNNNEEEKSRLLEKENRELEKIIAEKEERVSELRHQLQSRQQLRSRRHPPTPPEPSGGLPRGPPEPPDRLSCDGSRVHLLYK
receptors (Bioprint panel) (Homo sapiens, UniProt P07550), sequence (P07550 whole entry): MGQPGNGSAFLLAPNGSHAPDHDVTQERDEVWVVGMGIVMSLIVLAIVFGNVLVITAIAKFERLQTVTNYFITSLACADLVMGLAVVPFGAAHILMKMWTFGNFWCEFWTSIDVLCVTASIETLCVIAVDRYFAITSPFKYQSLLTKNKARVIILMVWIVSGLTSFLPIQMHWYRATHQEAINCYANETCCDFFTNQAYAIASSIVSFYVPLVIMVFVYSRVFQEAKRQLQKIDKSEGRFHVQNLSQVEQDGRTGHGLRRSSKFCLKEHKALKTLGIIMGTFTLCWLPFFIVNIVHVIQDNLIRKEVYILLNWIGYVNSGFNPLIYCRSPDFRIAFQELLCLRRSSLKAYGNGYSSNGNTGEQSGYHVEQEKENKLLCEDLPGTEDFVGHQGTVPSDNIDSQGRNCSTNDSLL
T1 sequence (P30556 whole entry): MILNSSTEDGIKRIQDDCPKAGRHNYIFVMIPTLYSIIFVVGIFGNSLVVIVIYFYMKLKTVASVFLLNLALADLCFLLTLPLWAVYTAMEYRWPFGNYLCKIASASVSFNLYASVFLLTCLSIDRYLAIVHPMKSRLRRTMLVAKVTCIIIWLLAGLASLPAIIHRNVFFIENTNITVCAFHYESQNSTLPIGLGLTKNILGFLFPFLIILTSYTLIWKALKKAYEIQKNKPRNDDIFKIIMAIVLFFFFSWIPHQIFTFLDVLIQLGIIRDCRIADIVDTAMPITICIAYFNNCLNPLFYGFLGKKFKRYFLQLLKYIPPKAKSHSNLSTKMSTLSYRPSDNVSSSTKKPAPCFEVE
receptors (Bioprint panel) (Homo sapiens, UniProt P41968), sequence (P41968 whole entry): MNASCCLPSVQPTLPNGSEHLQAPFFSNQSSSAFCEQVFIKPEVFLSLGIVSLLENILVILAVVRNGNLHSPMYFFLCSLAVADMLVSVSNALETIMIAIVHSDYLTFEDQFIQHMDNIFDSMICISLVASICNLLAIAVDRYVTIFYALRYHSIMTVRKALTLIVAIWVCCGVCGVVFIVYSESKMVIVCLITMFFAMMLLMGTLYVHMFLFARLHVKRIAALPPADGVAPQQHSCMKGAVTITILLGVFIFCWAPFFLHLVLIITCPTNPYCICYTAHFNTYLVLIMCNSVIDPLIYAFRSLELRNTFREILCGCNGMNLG

**Q.** What does the source list for CC(C)=CCC[C@H](CO)[C@@H]1CC[C@@H](C)c2c1cc(C)c(O)c2O [Compound 1, 7,8,18-trihydroxyserrulat-14-ene]?
**A.** inhibition at 10 µM [1]: 2%; inhibition at 10 µM [2]: 70%; inhibition at 10 µM [3]: -4%; inhibition at 10 µM [4]: 2%; inhibition at 10 µM [5]: 42%; inhibition at 10 µM [6]: 12%; inhibition at 10 µM [7]: -20%; inhibition at 10 µM [8]: 16%; inhibition at 10 µM [9]: 59%; inhibition at 10 µM [10]: 18%; % Inhibition of Control Specific Binding [11]: 11%; % Inhibition of Control Specific Binding ([11]; CYTOKINES TNF-alpha (h) (agonist radioligand)): −23%; % Inhibition of Control Specific Binding ([11]; Ca2+ channel (L, dihydropyridine site) (antagonist radioligand)): 55%; % Inhibition of Control Specific Binding ([11]; Ca2+ channel (L, diltiazem site) (benzothiazepines) (antagonist radioligand)): −30%; % Inhibition of Control Specific Binding ([11]; Ca2+ channel (L, verapamil site) (phenylalkylamine) (antagonist radioligand)): −4%; % Inhibition of Control Specific Binding ([11]; Cl- channel (GABA-gated) (antagonist radioligand)): 42%; % Inhibition of Control Specific Binding ([11]; GABA CHANNELS BZD (central) (agonist radioligand)): −31%; % Inhibition of Control Specific Binding ([11]; GABA transporter (antagonist radioligand)): −10%; % Inhibition of Control Specific Binding ([11]; GLUTAMATE CHANNELS AMPA (agonist radioligand)): 4%; % Inhibition of Control Specific Binding ([11]; GLUTAMATE CHANNELS NMDA (antagonist radioligand)): 9%; % Inhibition of Control Specific Binding ([11]; GLUTAMATE CHANNELS PCP (antagonist radioligand)): −11%; % Inhibition of Control Specific Binding ([11]; GLUTAMATE CHANNELS kainate (agonist radioligand)): 15%; % Inhibition of Control Specific Binding ([11]; Na+ channel (site 2) (antagonist radioligand)): 48%; % Inhibition of Control Specific Binding ([11]; SKCa channel (antagonist radioligand)): 14%; % Inhibition of Control Specific Binding ([11]; Thyroid Hormone): 9%; inhibition at 10 µM [12]: 60%; inhibition at 10 µM [13]: 60%; inhibition at 10 µM [14]: 47%; inhibition at 10 µM [15]: 32%; inhibition at 10 µM [16]: 39%; inhibition at 10 µM [17]: -41%; inhibition at 10 µM [18]: 46%; inhibition at 10 µM [19]: 10%; inhibition at 10 µM [20]: 18%; inhibition at 10 µM [21]: -12%; inhibition at 10 µM [22]: -17%; inhibition at 10 µM [23]: 62%; % Inhibition of Control Specific Binding [24]: −9%; inhibition at 10 µM [25]: -3%; inhibition at 10 µM [26]: 19%
